{"source": "paper PMC12926040", "about": "“ADP-ribose is a competitive inhibitor of methanol dehydrogenases from Bacillus methanolicus” (The Journal of Biological Chemistry, 2025)", "key": {"[1]": {"target": "T1, BmMDH2 (Bacillus methanolicus, UniProt I3E949)", "assay": "Kinetic assay of MDHs, ethanol dehydrogenation, NAD+ varied", "assay_type": "biochemical, Bacillus methanolicus MGA3", "conditions": "1.0 μM ADPR"}, "[2]": {"target": "T1, BmMDH2", "assay": "Effects of NAM, AMP and ADPR (0.3 mM each) on BmMDH2 activity", "assay_type": "biochemical, Bacillus methanolicus MGA3", "conditions": "3 mM NAD+, 40 mM ethanol"}, "[3]": {"target": "T1, BmMDH2", "assay": "Isothermal titration calorimetry (ITC) of ADPR binding", "set-up": "species or system Bacillus methanolicus MGA3", "conditions": "metal-free BmMDH2"}, "[4]": {"target": "T2, ADH from Saccharomyces cerevisiae (ScADH) (Saccharomyces cerevisiae, UniProt P00330)", "T2 construct": "purchased TCI A0200", "T2 sequence (P00330 1-348)": "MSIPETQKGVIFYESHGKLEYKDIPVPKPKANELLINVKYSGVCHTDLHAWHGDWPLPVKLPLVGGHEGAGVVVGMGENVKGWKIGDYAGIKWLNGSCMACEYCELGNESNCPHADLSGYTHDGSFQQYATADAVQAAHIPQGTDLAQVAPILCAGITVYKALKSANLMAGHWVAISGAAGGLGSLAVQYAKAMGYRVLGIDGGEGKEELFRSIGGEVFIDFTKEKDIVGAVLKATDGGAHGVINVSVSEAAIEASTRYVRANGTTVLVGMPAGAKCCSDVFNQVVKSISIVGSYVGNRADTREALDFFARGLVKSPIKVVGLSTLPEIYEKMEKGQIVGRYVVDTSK", "assay": "Inhibition effect of ADPR on type I alcohol dehydrogenase", "assay_type": "biochemical", "conditions": "0.5 mM ADPR, 0.5 mM NAD+"}, "[5]": {"test_system": "isopropanol dehydrogenase (IPADHM4)", "assay_type": "biochemical, Brucella suis"}, "[6]": {"target": "T3, CbFDH (Candida boidinii, UniProt O13437)", "T3 construct": "made in house; cell-free extract", "T3 sequence (O13437 1-364)": "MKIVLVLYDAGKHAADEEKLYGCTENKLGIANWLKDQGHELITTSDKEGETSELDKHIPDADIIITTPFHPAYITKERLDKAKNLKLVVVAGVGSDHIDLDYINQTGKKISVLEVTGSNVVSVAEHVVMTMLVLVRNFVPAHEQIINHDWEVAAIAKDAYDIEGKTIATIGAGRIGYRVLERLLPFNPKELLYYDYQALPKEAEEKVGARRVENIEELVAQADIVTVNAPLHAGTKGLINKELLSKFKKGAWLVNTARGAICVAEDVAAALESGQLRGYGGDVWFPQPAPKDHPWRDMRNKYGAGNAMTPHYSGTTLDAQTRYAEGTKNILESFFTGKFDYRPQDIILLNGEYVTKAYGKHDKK", "assay": "Inhibition effect of ADPR on type II alcohol dehydrogenases", "assay_type": "biochemical", "conditions": "0.5 mM ADPR, 0.5 mM NAD+"}, "[7]": {"target": "T4, glucose dehydrogenase (BmGDH) (Priestia megaterium, UniProt P40288)", "T4 construct": "made in house; cell-free extract", "assay": "Inhibition effect of ADPR on type II alcohol dehydrogenases", "assay_type": "biochemical, Bacillus megaterium IWG3", "conditions": "0.5 mM ADPR, 0.5 mM NAD+"}, "[8]": {"test_system": "BaAlaDH", "assay": "Inhibition effect of ADPR on type II alcohol dehydrogenases", "assay_type": "biochemical, Bacillaceae", "conditions": "0.5 mM ADPR, 0.5 mM NAD+"}, "[9]": {"target": "ACT (Bacillus methanolicus, UniProt Q8KP10, K162Q/L124I/V88I)", "conditions": "read-out: KM of ACT for ADPR; Tris-HCl pH 8.0, 5 mM MgCl2, 25 °C", "experimental": "The reaction was terminated by adding 10 μl of 3 M H2SO4 after incubation at 25 ° C for 5 min, followed by analysis using HPLC. The kcat and KM values were determined by fitting the initial velocity versus substrate concentration data to the Michaelis-Menten equation using GraphPad Prism.\nReactions were terminated by adding 10 μL of 3 M H2SO4 after incubation at 25 °C for 5 minutes. Data are means ± SDs of three measurements."}, "[10]": {"target": "T1, BmMDH2", "assay": "Inhibition kinetics of ADPR on formaldehyde reduction (NADH fluorescence)", "assay_type": "biochemical, Bacillus methanolicus MGA3", "conditions": "read-out: KM of BmMDH2, without ADPR, 0 to 150 μM NADH", "experimental": "Data are shown as means ± SDs (n = 3). Apparent KM values for NAD^+ were determined in the presence of 10 nM ACT (Fig. S6). […] Data are presented as means ± SDs (n = 3). […] The row labels are given as the substance labels. / Panel D: no substance label is printed with the KD and thermodynamic values."}, "[11]": {"substrate": "NC(=O)c1ccc[n+]([C@@H]2O[C@H](COP(=O)(O)OP(=O)(O)OC[C@H]3O[C@@H](n4cnc5c(N)ncnc54)[C@H](O)[C@@H]3O)[C@@H](O)[C@H]2O)c1", "assay": "Kinetic assay of MDHs, ethanol dehydrogenation, NAD+ varied", "assay_type": "biochemical, Bacillus methanolicus MGA3", "conditions": "other: in the presence of 10 nM ACT, 40 mM ethanol, pH 8.0, 25.0 °C", "experimental": "NAD^+ and NADH used for the kinetic assays were pretreated with ACT as described above. The reaction mixtures for the ethanol dehydrogenation contained 40 mM ethanol, adequate MDHs, and various concentrations of NAD^+ (ranging from 0 to 48 mM). Enzymatic catalytic rates were determined by monitoring the increase in NADH absorbance at 340 nm. To determine the kinetics of BmMDH2 for the reverse direction (formaldehyde reduction), the reaction mixtures contained 1 mM DTT, 100 nM BmMDH2, 20 mM formaldehyde, 0.5 mM MnCl2, and 0 to 150 μM of NADH. The catalytic rates of formaldehyde reduction were measured by monitoring the decrease of NADH fluorescence, using excitation and emission wavelengths of 340 nm and 535 nm, respectively.\nThe kinetic assays were conducted in 200 μL Tris-HCl buffer (100 mM, pH 8.0) at 25 °C. The reaction mixture contained 40 mM ethanol, 0.5 mM MnCl2, 10 nM ACT, 5 mM MgCl2, adequate MDHs (BmMDH1: 500 nM; BmMDH2: 100 nM; BmMDH2S101G: 100 nM; CnMDH2 CT4: 100 nM), and 0 to 48 mM of NAD^+. […] Data are means ± SDs of three measurements."}, "[12]": {"substrate": "NC(=O)c1ccc[n+]([C@@H]2O[C@H](COP(=O)(O)OP(=O)(O)OC[C@H]3O[C@@H](n4cnc5c(N)ncnc54)[C@H](O)[C@@H]3O)[C@@H](O)[C@H]2O)c1", "assay": "Kinetic assay of MDHs, ethanol dehydrogenation, NAD+ varied", "assay_type": "biochemical, Bacillus methanolicus MGA3", "conditions": "other: in the presence of 10 nM ACT, 40 mM ethanol, pH 8.0, 25.0 °C", "remark": "listed apart in the source"}}, "data": [{"molecule": "adenosine diphosphate ribose [ADPR]", "values": [{"measurement": "effect on kinetics of ethanol dehydrogenation", "setting": "[1]", "result": "decrease in kcat, while KM remained unchanged"}, {"measurement": "inhibition of BmMDH2 activity", "setting": "[2]", "result": 72, "unit": "%"}, {"measurement": "binding to EDTA-treated BmMDH2", "setting": "[3]", "result": "no binding"}, {"measurement": "inhibition by ADPR", "setting": "[4]", "result": "None of these enzymes showed significant inhibition"}, {"measurement": "inhibition by ADPR", "setting": "[5]", "result": "None of these enzymes showed significant inhibition"}, {"measurement": "inhibition by ADPR", "setting": "[6]", "result": "None of these enzymes showed significant inhibition"}, {"measurement": "inhibition by ADPR", "setting": "[7]", "result": "None of these enzymes showed significant inhibition"}, {"measurement": "inhibition by ADPR", "setting": "[8]", "result": "None of these enzymes showed significant inhibition"}, {"measurement": "Km", "setting": "[9]", "result": 15.9, "unit": "µM"}]}, {"molecule": "NC(=O)C1=CN([C@@H]2O[C@H](COP(=O)(O)OP(=O)(O)OC[C@H]3O[C@@H](n4cnc5c(N)ncnc54)[C@H](O)[C@@H]3O)[C@@H](O)[C@H]2O)C=CC1", "note": "[NADH]", "values": [{"measurement": "Km", "setting": "[10]", "result": "6.7 ± 1.7", "unit": "µM"}]}, {"molecule": "BmMDH1 (Bacillus methanolicus MGA3) (protein) MTTNFFIPPASVIGRGAVKEVGTRLKQIGAKKALIVTDAFLHSTGLSEEVAKNIREAGVDVAIFPKAQPDPADTQVHEGVDVFKQENCDSLVSIGGGSSHDTAKAIGLVAANGGRINDYQGVNSVEKPVVPVVAITTTAGTGSETTSLAVITDSARKVKMPVIDEKITPTVAIVDPELMVKKPAGLTIATGMDALSHAIEAYVAKGATPVTDAFAIQAMKLINEYLPKAVANGEDIEAREKMAYAQYMAGVAFNNGGLGLVHSISHQVGGVYKLQHGICNSVNMPHVCAFNLIAKTERFAHIAELLGENVAGLSTAAAAERAIVALERINKSFGIPSGYAEMGVKEEDIELLAKNAYEDVCTQSNPRVPTVQDIAQIIKNAM", "values": [{"measurement": "Km", "setting": "[11]", "result": "2100 ± 1000", "unit": "µM"}]}, {"molecule": "BmMDH2 (Bacillus methanolicus MGA3) (protein) MTNTQSAFFMPSVNLFGAGSVNEVGTRLADLGVKKALLVTDAGLHGLGLSEKISSIIRAAGVEVSIFPKAEPNPTDKNVAEGLEAYNAENCDSIVTLGGGSSHDAGKAIALVAANGGKIHDYEGVDVSKEPMVPLIAINTTAGTGSELTKFTIITDTERKVKMAIVDKHVTPTLSINDPELMVGMPPSLTAATGLDALTHAIEAYVSTGATPITDALAIQAIKIISKYLPRAVANGKDIEAREQMAFAQSLAGMAFNNAGLGYVHAIAHQLGGFYNFPHGVCNAVLLPYVCRFNLISKVERYAEIAAFLGENVDGLSTYDAAEKAIKAIERMAKDLNIPKGFKELGAKEEDIETLAKNAMKDACALTNPRKPKLEEVIQIIKNAM", "values": [{"measurement": "Km", "setting": "[12]", "result": "720 ± 60", "unit": "µM"}]}]}
